Measurements: patent publication US20260083751A1, “ALLOSTERIC MODULATORS OF ANDROGEN RECEPTOR COACTIVATOR RECRUITMENT FOR CRPC THERAPY” (University of Pittsburgh – Of the Commonwealth System of …, priority 2022, published 2026)
Read-outs that look alike come from different tables or passages of the source.

Target: T1, AR-TIF2 PPI (Homo sapiens, UniProt P10275)
T1 construct: AR-LBD residues (662-919) were incorporated into one biosensor; expressed in transfected cells; host or cells: U-2 OS osteosarcoma cells, coinfected with recombinant adenoviruses
T1 sequence (P10275 662-919): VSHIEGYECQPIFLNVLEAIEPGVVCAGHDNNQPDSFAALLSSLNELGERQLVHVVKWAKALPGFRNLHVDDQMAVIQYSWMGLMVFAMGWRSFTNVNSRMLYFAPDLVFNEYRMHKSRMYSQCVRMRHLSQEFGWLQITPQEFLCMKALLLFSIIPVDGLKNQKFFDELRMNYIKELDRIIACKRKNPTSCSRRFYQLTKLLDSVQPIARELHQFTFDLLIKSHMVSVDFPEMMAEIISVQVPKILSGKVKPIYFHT
Test: AR-TIF2 PPIB HCS assay: inhibition of DHT-induced AR-TIF2 PPI formation (compound then DHT)
Format: cell-based
Conditions: U-2 OS cells
Protocol: AR-TIF2 Protein-Protein Interaction Biosensor Assay: The AR-TIF2 PPIB HCS assay was performed in U-2 OS osteosarcoma cells as described previously (Fancher et al., Assay Drug Dev Technol. 2016, 14:453-477; Fancher et al., Assay Drug Dev Technol. 2018, 16:297-319; Hua et al., Assay Drug Dev Technol. 2014, 12:395-418; Hua et al., Methods Mol Biol. 2018, 1683:211-227). Briefly, U-2 OS cells were coinfected with recombinant adenovirus biosensor expression constructs and seeded at 2,500 cells per well in 384-well collagen-coated microplates (Greiner Bio-One #781956) and plates were incubated overnight at 37° C. in 5% CO2 and 95% humidity. […] After the appropriate time, assay plates were fixed by transfer of 50 μL of pre-warmed (37° C.) 7.4% formaldehyde and 2 μg/mL Hoechst 33342 in PBS and incubation at room temperature for 30 minutes. Liquid was aspirated, plates were washed twice with 85 μL PBS, leaving the final wash in the plate. Plates were sealed with adhesive aluminum plate seals, and fluorescent images of three fields of view were acquired in the DAPI (Hoechst stained nuclei), FITC (TIF2-GFP) and Texas Red (AR-RFP) channels on an ImageXpress® Micro (IXM) automated HCS platform (Molecular Devices LLC, Sunnyvale, CA) using a 10× Plan Fluor 0.3 NA objective. Images were analyzed using the Translocation Enhanced (TE) image analysis module of the MetaXpress® software (Molecular Devices, LLC, San Jose, CA) as described previously (Fancher et al., Assay Drug Dev Technol. 2016, 14:453-477; Fancher et al., Assay Drug Dev Technol. 2018, 16:297-319; Hua et al., Assay Drug Dev Technol. 2014, 12:395-418; Hua et al., Methods Mol Biol. 2018, 1683:211-227).
For the 96-well AR-LBD H^3-DHT radioligand binding assay, eight minimum and maximum plate control wells were utilized to normalize the data. For the PC cell line growth inhibition assays the DMSO control data from the TO and T72 assay plates was used to assess the dynamic range of the T0 to T72 cell growth, and to calculate S:B ratios and Z′-factor coefficient statistics for the assay signal window (T0 to T72). To normalize the 72 h compound exposure PC growth inhibition data, the signals from the compound treated wells were processed and expressed as % of the T72 DMSO plate controls. IC50 and GI50 values for each of the bioassays were calculated using GraphPad Prism 9 software to plot and fit data to curves using the Sigmoidal dose response variable slope equation Y=Bottom+[Top-Bottom]/[1+10^(Log EC50−X)*HillSlope].
A positional AR-TFI2 protein-protein interaction biosensor (PPIB) assay was used to identify small molecules that inhibited DHT-induced formation of AR-TIF2 PPIs and/or disrupted pre-existing AR-TIF2 PPIs (Fancher et al., Assay Drug Dev Technol 2016, 14(8):453-477; Fancher et al., Assay Drug Dev Technol 2018, 16(6):297-319; Hua et al., Assay Drug Dev Technol 2014, 12:395-418; Hua et al., Methods Mol biol 2018, 1683:211-227). AR-LBD residues (662-919) were incorporated into one biosensor and TIF2 residues (725-840) containing the 3rd NR box LXXLL motif into the second interacting biosensor partner (Id.) The AR-TIF2 PPIB recapitulates the orthosteric ligand (OSL)-induced translocation of AR from the cytoplasm into the nucleus where PPIs with TIF2 result in colocalization of both biosensors in the nucleolus. Using three libraries, a total of 143,535 compounds were screened—a 10,000-compound ChemDiv PPI focused diversity library, a 50,000-compound ChemBridge diversity library, and a 83,535-compound library provided by the NCI's Chemical Biology Consortium. The 10K and 50K diversity libraries were subsets of 142K and 810K parent libraries, enabling screening of a representative subset of >1×10^6 compounds. AR-TIF2 PPI inhibitor and disruptor actives were confirmed in the HCS assay and counter screens designed to identify and exclude nuisance/interference or non-selective compounds (Fancher et al., Assay Drug Dev Technol 2018, 16(6):297-319). […]

[1] = 25 nM DHT, read-out: Inhibition DHT-induced AR-TIF2 PPI Formation IC50
[2] = compound then DHT, read-out: C then D IC50

## Cc1ccccc1-c1cc(O)c2c(c1)CN(c1nc(C(N)=O)cs1)CCO2 [Compound S1-1]
[1]
  IC50: 5.38 µM
[2]
  IC50: 5.64 µM

## Cc1c(-c2ccccc2F)[nH]c2ccc(CNC(=O)CCc3cn[nH]c3)cc12 [Compound S3-11]
[1]
  IC50: 3.11 µM
[2]
  IC50: 3.25 µM

## Cc1ccccc1-c1cc(O)c2c(c1)CN(c1cc(N)ncn1)CCO2 [Compound S1-4]
[1]
  IC50: > 100 µM
[2]
  IC50: > 100 µM

## Cc1nc(N)cc(N2CCOc3c(O)cc(-c4ccccc4C)cc3C2)n1 [Compound S1-2]
[2]
  IC50: 14.5 µM

## Cc1ccccc1-c1cc(O)c2c(c1)CN(c1nccs1)CCO2 [Compound S1-3]
[2]
  IC50: 30.5 µM

## Cc1nsc(NC(=O)N2CCC(Cn3ccnc3)CC2)n1 [Compound S2-7]
[1]
  IC50: > 100 µM
[2]
  IC50: > 100 µM

## Cc1c(-c2ccccc2F)[nH]c2ccc(CNC(=O)c3ccc(CO)o3)cc12 [Compound S3-14]
[2]
  IC50: 2.42 µM

## COc1cc(-c2ccc(C)s2)cc2c1OCCN(c1nc(C(N)=O)cs1)C2 [Compound S1-5]
[2]
  IC50: 26.2 µM

## Cc1nsc(NC(=O)N2CCC(Sc3ccccc3C)CC2)n1 [Compound S2-6]
[1]
  IC50: 0.62 µM

## CC(=O)NCCC(=O)NCc1ccc2[nH]c(-c3ccccc3F)c(C)c2c1 [Compound S3-13]
[2]
  IC50: 7.98 µM

## Cc1c(-c2ccc(F)cc2)[nH]c2ccc(CNC(=O)c3ccc(CO)o3)cc12 [Compound S3-15]
[2]
  IC50: 6.7 µM

## Cc1c(-c2ccccc2F)[nH]c2ccc(CNC(=O)CCc3cnccn3)cc12 [Compound S3-12]
[2]
  IC50: 5.13 µM

## CNC(=O)c1ccc(-c2c[nH]c3c(C)cccc23)cc1 [Compound S3-21]
[1]
  IC50: ~36 µM
[2]
  IC50: 36.1 µM

## Cc1cccc2c(-c3ccc(O)c(F)c3)c[nH]c12 [Compound S3-17]
[2]
  IC50: 3.87 µM
